The supplement of paper PMC12420376

What was measured:
[1] = tested on: KURAMOCHI; assay: drug sensitivity score (DSS2) on cancer cell count; higher = more sensitive; extreme values may be limits of the assay; settings: 72 h
Procedure, shortened: (§1)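 Ovarian cancer cells were grown alone or in 1:1 direct co-culture with lung or skin fibroblasts. They were plated onto 384-well plates pre-spotted acoustically with 528 approved and investigational compounds at 5 concentrations, then treated for 72 h. Cells were fixed, immunostained for CK8/18 with Hoechst, and imaged at 10× (4 fields) to count cancer cells. A drug sensitivity score (DSS2) was derived in Breeze from 4-parameter logistic fits, with screen quality checked by Z'.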

[2] = tested on: OVCAR8; assay: as above; settings: 72 h
Procedure, shortened: as §1

[3] = co-cultured fibroblast: BJHTERT
[4] = co-cultured fibroblast: none (monoculture)

SMILES | drug sensitivity score [1, 3] [DSS] | drug sensitivity score ([1]; co-cultured fibroblast: WI38) [DSS] | drug sensitivity score [1, 4] [DSS] | drug sensitivity score [2, 3] [DSS] | drug sensitivity score ([2]; co-cultured fibroblast: WI38) [DSS] | drug sensitivity score [2, 4] [DSS]
C[C@H]1C[C@@H](n2c(Nc3ccc(OC(F)(F)F)cc3)nc3cc(CCC(=O)O)ccc32)CC(C)(C)C1 | 0 | 0 | 0 | 0 | 0 | 0
C[C@H]1Oc2cc(cnc2N)-c2c(nn(C)c2C#N)CN(C)C(=O)c2ccc(F)cc21 | 0.7 | 0 | 0 | 0.4 | 8.7 | 5.7
Cc1c(-c2c(-c3ccc(F)o3)sc3ncnc(O[C@H](Cc4ccccc4OCc4ccnn4CC(F)(F)F)C(=O)O)c23)ccc(OCCN2CCN(C)CC2)c1Cl | 0 | 0 | 0 | 0 | 0 | 0
Cc1c(-c2ccc(N3CCc4cccc(C(=O)Nc5nc6ccccc6s5)c4C3)nc2C(=O)O)cnn1CC12CC3CC(CC(C3)C1)C2 | 3 | 8.2 | 3.8 | 1.6 | 0 | 1.6
Cc1c(Cn2c(C)nc3c(C(=O)O)cc(N4CCOCC4)cc32)cccc1C(F)(F)F | 5.5 | 0.3 | 6.9 | 3.7 | 0 | 0
Cc1ccc(C(=O)N(CCCN)[C@@H](c2oc3cc(Cl)ccc3c(=O)c2Cc2ccccc2)C(C)C)cc1 | 8.3 | 17.2 | 14.6 | 5.2 | 7.6 | 29.1
Cc1cccc(CC(=O)N2CCc3c2ccc(-c2cn(C)c4ncnc(N)c24)c3F)n1 | 0.3 | 0 | 0 | 1.4 | 0 | 0
Cc1nc(Nc2n[nH]c3c2CN(C(=O)N[C@H](CN(C)C)c2ccccc2)C3(C)C)c2sccc2n1 | 21 | 24.6 | 19.4 | 20.8 | 9.4 | 15.5
Cc1ncc(Cl)cc1NCc1ccc(C(=O)N[C@@H](CC2CCCC2)C(=O)NC2CC2)s1 | 0 | 0 | 0 | 0 | 0 | 0
Cc1nn(C)c(COc2ccc(N3CCN(S(=O)(=O)N(C)C)CC3)cc2)c1-c1cccc2c(CCCOc3cccc4ccccc34)c(C(=O)O)n(CCN3CCOCC3)c12 | 5.7 | 8.5 | 10.3 | 4.7 | 4 | 8.2
Cn1cc(-c2ccc(F)c(C(F)(F)F)c2)nc1C1CCN(c2ncnc3[nH]ncc23)CC1 | 1 | 0 | 0 | 0 | 0 | 0.6
Cn1cc(C2=Nc3cc(NC(=O)C(N)C4CCCCC4)cc4c3C2=CNNC4=O)cn1 (stereo unspecified) | 14.6 | 12.1 | 21 | 16.2 | 13 | 16.7
N#Cc1ccc(COC[C@H]2O[C@@H](n3c(NCc4ccc(Cl)c(Cl)c4)nc4c(N)ncnc43)[C@H](O)[C@@H]2O)cc1 | 4.2 | 3.3 | 3.1 | 1 | 0 | 5.5
NCC(=O)Nc1ccc(-n2nc(C(F)(F)F)cc2-c2ccc3c(ccc4ccccc43)c2)cc1 | 2.6 | 4.1 | 8 | 0 | 0 | 9.7
NC[C@@](O)(c1ccc(Cl)cc1)c1ccc(-c2cn[nH]c2)cc1 | 0 | 4.2 | 3 | 3.3 | 10.7 | 5.1
Nc1nccc(-c2c(-c3ccc(F)cc3)ncn2C2CCCCC2)n1 | 5.1 | 4 | 4.1 | 1.4 | 0 | 1.2
Nc1ncnc2c1c(COc1cccc(Cl)c1)nn2C1CCOCC1 | 0 | 0 | 0 | 0 | 0 | 0
O=C(NC[C@H](O)CN1CCc2ccccc2C1)c1cc(NC2COC2)ncn1 | 0.1 | 0 | 0 | 0 | 0 | 0
O=C(NCc1ccncc1)C12CC3CC(C1)CC(c1ccc(Cl)cc1)(C3)C2 | 5.8 | 5.6 | 3.7 | 3.9 | 3.6 | 5
O=C(NOC[C@H](O)CO)c1ccc(F)c(F)c1Nc1ccc(I)cc1F | 8.8 | 0.8 | 3.3 | 7.7 | 0 | 10.6
O=C(Nc1ccc2[nH]nc(-c3ccncc3)c2c1)[C@@H]1CCN(CC(=O)N2CCN(c3ccc(-c4ncccn4)cc3)CC2)C1 | 13.5 | 12.4 | 15.5 | 16.6 | 10.2 | 15.5
O=C(O)c1ccc(-c2c[nH]c3ncc(-c4ccccc4)cc23)cc1C1CCCC1 | 6.8 | 7.3 | 7.1 | 2 | 4.8 | 8.1
O=C(O)c1ccc(CN2CCC(CN[C@@H]3C[C@H]3c3ccccc3)CC2)cc1 | 0.9 | 0 | 0 | 0 | 0 | 2.2
O=C1Cc2cc(C(=O)NC3C[C@H]4CC[C@@H](C3)N4S(=O)(=O)CC3CCN(CCCC(F)(F)F)CC3)c(Cl)cc2N1 (stereo partly specified) | 0 | 0.1 | 0 | 0 | 0 | 0
O=c1[nH]c(C2CCCN2)nc2c1oc1ccc(Cl)cc12 (stereo unspecified) | 2.2 | 5.4 | 4.1 | 4.4 | 1.8 | 2.8
CCN(CC)CCCC(C)Nc1ccnc2cc(Cl)ccc12 (stereo unspecified) [Chloroquine] | – | – | – | 12.8 | 6.4 | 6.4
Nc1ccn([C@@H]2O[C@H](CO)[C@@H](O)[C@@H]2O)c(=O)n1 [Cytarabine] | – | – | – | 20.1 | 18.3 | 25.2
Cc1ccc(NC(=O)c2ccc(CN3CCN(C)CC3)cc2)cc1Nc1nccc(-c2cccnc2)n1 [Imatinib] | – | – | – | 2 | 7.3 | 1.4
CC[C@H](CO)Nc1nc(NCc2ccccc2)c2ncn(C(C)C)c2n1 [Seliciclib] | – | – | – | 4.9 | 6.1 | –
